Where two headings read alike, the source gives them in different places.
Legend:
[1] = biological target: recombinant human kappa (KOR) opioid receptor (Homo sapiens, UniProt P41145); assay: Competitive radioligand binding at KOR ([3H]diprenorphine), CHO-K1 membranes
[2] = biological target: T1, recombinant human mu (MOR) opioid receptor (Homo sapiens, UniProt P35372); assay: Competitive radioligand binding at MOR ([3H]naloxone), single concentration, CHO-K1 membranes; details: 10 μM test compound; percent inhibition of specific [3H]naloxone (4 nM) binding; read-out: Mu Opioid Receptor Mu Receptor Inhibition % inhib @ 10 uM
T1 construct: expressed in transfected cells; host or cells: CHO-K1 cells (membranes)
Experimental: The binding affinities of certain compounds of the present invention were evaluated using radioligand binding assays in membranes prepared from CHO-K1 cells expressing recombinant human kappa (KOR) or mu (MOR) opioid receptors.
Competition binding experiments were conducted by incubating membrane protein to equilibrium in triplicate in the presence of a fixed concentration of radioligand and increasing concentrations of test compound for evaluation of binding to KOR or single concentration (10 μM) of test compound for evaluation of binding to MOR in 101 μL final volume. The radioligands used were specific for each receptor type, and the assay conditions are described in Table 1. Following incubations, the membranes were rapidly filtered through GF/B filter plate (presoaked with 0.5% polyethyleneimine), washed five times with cold 50 mM Tris-HCl, pH 7.5, and the bound radioactivity was then measured by liquid scintillation counting. Non-specific binding was measured in the presence of excess ligand; this value was subtracted from the total binding to yield the specific binding at each test concentration.
Ki (affinity of test compound) was obtained using the Cheng Prusoff correction using experimental Kd (affinity of radioligand) values that were previously determined under these assay conditions. For MOR binding, compounds were tested at one concentration, 10 μM, to evaluate its ability to inhibit specific radioligand binding. The values are expressed as percent inhibition of specific binding and greater than 50% inhibition of binding was considered to be significant.

[3] = biological target: T2, KOR (kappa opioid receptor) (Homo sapiens, UniProt P41145); assay: Inhibition of cAMP accumulation in forskolin-stimulated CHO-K1 cells stably expressing KOR; type: cell-based
T2 construct: expressed in transfected cells

[4] = Cheng Prusoff correction using experimental Kd of radioligand, read-out: Kappa Opioid Receptor Ki
[5] = read-out: Kappa Opioid Receptor IC50

Row | SMILES | Ki [1, 4] | IC50 [1, 5] | inhibition at 10 µM [2] | EC50 [3] | IC50 [1] | Ki [1] | IC50 ([1]; inhibition of specific [3H]diprenorphine (1 nM) binding, one experiment in triplicate, read-out: Kappa Opioid Receptor IC50)
1 | CN(C(=O)Cc1ccc(Cl)c(Cl)c1)[C@H](CN1CCCC1)c1cccc(NS(=O)(=O)c2ccc(Cl)nc2)c1 [Example 3, (S)—N-(1-(3-(6-chloropyridine-3-sulfonamido)phenyl)-2-(pyrrolidin-1-yl)ethyl)-2-(3,4-dichlorophenyl)-N-methylacetamide] | 0.36 nM | 2.79 nM | 94.2% | 0.29 nM | – | – | –
2 | CN(C(=O)Cc1ccc(F)c(F)c1)[C@H](CN1CC[C@H](OCCO)C1)c1ccc(OCCO)cc1 [Example 21, 2-(3,4-Difluorophenyl)-N-{(1S)-1-[4-(2-hydroxyethoxy)phenyl]-2-[(3S)-3-(2-hydroxyethoxy)pyrrolidin-1-yl]ethyl}-N-methylacetamide] | – | – | 0% | 33.3 nM | 1450 nM | 189 nM | –
3 | CN(C(=O)C(c1ccccc1)c1ccccc1)[C@H](CN1CCCC1)c1cccc(NS(=O)(=O)CCOCC(F)(F)F)c1 [Example 11, (S)—N-methyl-2,2-diphenyl-N-(2-(pyrrolidin-1-yl)-1-(3-(2-(2,2,2-trifluoroethoxy)ethylsulfonamido)phenyl)ethyl)acetamide] | 45 nM | 345 nM | 57.6% | 28.8 nM | – | – | –
4 | CN([C@H](CN1CC[C@H](O)C1)c1ccc(OCCO)cc1)S(=O)(=O)Cc1ccc(Cl)c(Cl)c1 [Example 22, 1-(3,4-Dichlorophenyl)-N-{(1S)-1-[4-(2-hydroxyethoxy)phenyl]-2-[(3S)-3-hydroxypyrrolidin-1-yl]ethyl}-N-methylmethanesulfonamide] | 32.2 nM | 247 nM | -10.3% | 15.5 nM | – | – | –
5 | CN(C(=O)Cc1ccc(Cl)c(Cl)c1)[C@H](CN1CCCC1)c1cccc(NS(=O)(=O)c2cccnc2Cl)c1 [Example 4, (S)—N-(1-(3-(2-chloropyridine-3-sulfonamido)phenyl)-2-(pyrrolidin-1-yl)ethyl)-2-(3,4-dichlorophenyl)-N-methylacetamide] | 6.48 nM | 49.7 nM | 91.8% | 1.75 nM | – | – | –
6 | CN(C(=O)Cc1ccc(F)cc1F)[C@H](CN1CC[C@H](OCCO)C1)c1ccc(OCCO)cc1 [Example 20, 2-(2,4-difluorophenyl)-N—((S)-1-(4-(2-hydroxyethoxy)phenyl)-2-((S)-3-(2-hydroxyethoxy)pyrrolidin-1-yl)ethyl)-N-methylacetamide] | 7490 nM | – | -29.4% | 2670 nM | – | – | 57400 nM
7 | CN(C(=O)Cc1ccc(F)cc1F)[C@H](CN1CC[C@H](O)C1)c1ccc(OCCO)cc1 [Example 15, 2-(2,4-Difluorophenyl)-N-{(1S)-1-[4-(2-hydroxyethoxy)phenyl]-2-[(3S)-3-hydroxypyrrolidin-1-yl]ethyl}-N-methylacetamide] | 0.69 nM | 5.27 nM | 23.5% | 0.164 nM | – | – | –
8 | CN(C(=O)Cc1ccc(Cl)c(Cl)c1)[C@H](CN1CCCC1)c1cccc(NS(=O)(=O)c2cn(C)nc2C(F)(F)F)c1 [Example 5, (S)-2-(3,4-dichlorophenyl)-N-methyl-N-(1-(3-(1-methyl-3-(trifluoromethyl)-1H-pyrazole-4-sulfonamido)phenyl)-2-(pyrrolidin-1-yl)ethyl)acetamide] | 1.01 nM | 7.74 nM | 97% | 1.35 nM | – | – | –
9 | CC(O)CS(=O)(=O)Nc1cccc([C@@H](CN2CCCC2)N(C)C(=O)Cc2ccc(C(F)(F)F)cc2)c1 (stereo partly drawn) [Example 13, N-((1S)-1-(3-(2-hydroxypropylsulfonamido)phenyl)-2-(pyrrolidin-1-yl)ethyl)-N-methyl-2-(4-(trifluoromethyl)phenyl)acetamide] | 0.1 nM | 0.75 nM | 95.4% | 0.067 nM | – | – | –
10 | CN(C(=O)Cc1nccs1)[C@H](CN1CC[C@H](O)C1)c1ccc(OCCO)cc1 [Example 18, N-{(1S)-1-[4-(2-Hydroxyethoxy)phenyl]-2-[(3S)-3-hydroxypyrrolidin-1-yl]ethyl}-N-methyl-2-(1,3-thiazol-2-yl)acetamide] | 17.6 nM | – | -3.2% | 4.67 nM | 135 nM | – | –
11 | CN(C(=O)Cc1ccc(Cl)c(Cl)c1)[C@H](CN1CC(O)C1)c1ccc(OCCO)cc1 [Example 24, (S)-2-(3,4-dichlorophenyl)-N-(2-(3-hydroxyazetidin-1-yl)-1-(4-(2-hydroxyethoxy)phenyl)ethyl)-N-methylacetamide] | 2.71 nM | 20.8 nM | 40.1% | 0.78 nM | – | – | –
12 | CN(C(=O)Cc1ccc(Cl)c(Cl)c1)[C@H](CN1CCCC1)c1cccc(NS(=O)(=O)c2cn(C)c(=O)n(C)c2=O)c1 [Example 2, (S)-2-(3,4-dichlorophenyl)-N-(1-(3-(1,3-dimethyl-2,4-dioxo-1,2,3,4-tetrahydropyrimidine-5-sulfonamido)phenyl)-2-(pyrrolidin-1-yl)ethyl)-N-methylacetamide] | 0.7 nM | 5.36 nM | 87.1% | 0.311 nM | – | – | –
13 | Cc1noc(C)c1S(=O)(=O)Nc1cccc([C@@H](CN2CCCC2)N(C)C(=O)Cc2ccc(Cl)c(Cl)c2)c1 [Example 6, (S)-2-(3,4-dichlorophenyl)-N-(1-(3-(3,5-dimethylisoxazole-4-sulfonamido)phenyl)-2-(pyrrolidin-1-yl)ethyl)-N-methylacetamide] | 0.39 nM | 3.01 nM | 84.6% | 1.15 nM | – | – | –
14 | Cc1ccc(CC(=O)N(C)[C@H](CN2CC[C@H](O)C2)c2ccc(OCCO)cc2)cn1 [Example 16, N-{(1S)-1-[4-(2-Hydroxyethoxy)phenyl]-2-[(3S)-3-hydroxypyrrolidin-1-yl]ethyl}-N-methyl-2-(6-methylpyridin-3-yl)acetamide] | 1.34 nM | 10.3 nM | 28.4% | 0.294 nM | – | – | –
15 | CN([C@H](CN1CC[C@H](O)C1)c1ccc(OCCO)cc1)S(=O)(=O)Cc1ccc(C(F)(F)F)cc1 [Example 23, N-{(18)-1-[4-(2-Hydroxyethoxy)phenyl]-2-[(38)-3-hydroxypyrrolidin-1-yl]ethyl}-N-methyl-1-[4-(trifluoromethyl)phenyl]methanesulfonamide] | – | – | -2% | 53.6 nM | 1080 nM | 141 nM | –
16 | CC(O)CS(=O)(=O)Nc1cccc([C@@H](CN2CCCC2)N(C)C(=O)C(c2ccccc2)c2ccccc2)c1 (stereo partly drawn) [Example 12, N-((1S)-1-(3-(2-hydroxypropylsulfonamido)phenyl)-2-(pyrrolidin-1-yl)ethyl)-N-methyl-2,2-diphenylacetamide] | 48.8 nM | 374 nM | 47% | 18.5 nM | – | – | –
17 | COCCN(C)S(=O)(=O)Nc1cccc([C@@H](CN2CCCC2)N(C)C(=O)Cc2ccc(Cl)c(Cl)c2)c1 [Example 7] | 0.09 nM | 0.67 nM | 99.9% | 0.19 nM | – | – | –
18 | CN(C(=O)Cc1ccc(Cl)c(Cl)c1)[C@H](CN1CCCC1)c1cccc(NS(=O)(=O)c2cc(Cl)c(Cl)s2)c1 [Example 10, (S)-2-(3,4-dichlorophenyl)-N-(1-(3-(4,5-dichlorothiophene-2-sulfonamido)phenyl)-2-(pyrrolidin-1-yl)ethyl)-N-methylacetamide] | 1.25 nM | 9.61 nM | 95.9% | 3.74 nM | – | – | –
19 | CC(O)CS(=O)(=O)Nc1cccc([C@@H](CN2CCCC2)N(C)C(=O)Cc2ccc(Cl)c(Cl)c2)c1 (stereo partly drawn) [Example 8, 2-(3,4-dichlorophenyl)-N-((1S)-1-(3-(2-hydroxypropylsulfonamido)phenyl)-2-(pyrrolidin-1-yl)ethyl)-N-methylacetamide] | 0.05 nM | 0.35 nM | 99% | 0.06 nM | – | – | –
20 | CN(C(=O)Cc1ccc(Cl)c(Cl)c1)[C@H](CN1CCCC1)c1cccc(NS(=O)(=O)c2ccc(C#N)c(C(F)(F)F)c2)c1 [Example 1, (S)—N-(1-(3-(4-cyano-3-(trifluoromethyl)phenylsulfonamido)phenyl)-2-(pyrrolidin-1-yl)ethyl)-2-(3,4-dichlorophenyl)-N-methylacetamide] | 4.84 nM | 37.1 nM | 89% | 2 nM | – | – | –
21 | COCCN(CCOC)S(=O)(=O)Nc1cccc([C@@H](CN2CCCC2)N(C)C(=O)Cc2ccc(Cl)c(Cl)c2)c1 [Example 9, (S)—N-(1-(3-((N,N-bis(2-methoxyethyl)sulfamoyl)amino)phenyl)-2-(pyrrolidin-1-yl)ethyl)-2-(3,4-dichlorophenyl)-N-methylacetamide] | 0.47 nM | 3.58 nM | 101% | 0.5 nM | – | – | –

Source: patent US10322107B2, “N-methyl-N-(1-phenyl-2-(1-pyrrolidinyl)ethyl)-2-aminophenylacetamide derivatives agonists for the kappa opioid receptor” (Nektar Therapeutics, priority 2014, dated 2019)
